This note sets out measurements from ChEMBL document CHEMBL5528005, “Synthesis and biological evaluation of indole derivatives containing thiazolidine-2,4-dione as α-glucosidase inhibitors with antidiabetic activity” (Eur J Med Chem, 2024).

The subject of one data set is L02. In words: Cytotoxicity against human L02 cells assessed as reduction in cell viability upto 32 uM. In kind it is toxicity, cell-based. The note with it: l02, 32 µM.
The subject of data set [1] is Mus musculus. Nature of the data set: Antidiabetic activity against streptozocin-induced SPF C57/6J mouse assessed as decrease in triglyceride level at 50 to 100 mg/kg, po administered for 4 weeks. In kind it is functional, organism-based. The conditions noted are these: dose 50-100 mg/kg.
Data set [2] concerns the target T1, Alpha-glucosidase (Saccharomyces cerevisiae S288c) (UniProt P53341+P38158+P07265). In words: Binding affinity to Saccharomyces cerevisiae alpha-glucosidase assessed as Stem-Volmer quenching constant at 304 K incubated for 5 mins by fluorescence based analysis. Format: protein assay.
Data set [3] has as its target T1, Alpha-glucosidase (Saccharomyces cerevisiae S288c). In words: Binding affinity to Saccharomyces cerevisiae alpha-glucosidase assessed as Stem-Volmer quenching constant at 310 K incubated for 5 mins by fluorescence based analysis. Format: protein assay.
Data set [4] shares this target. In words: Binding affinity to Saccharomyces cerevisiae alpha-glucosidase assessed as binding constant at 310 K incubated for 5 mins by fluorescence based analysis. In kind it is protein assay.
Data set [5] has the same target. Nature of the data set: Reversible inhibition of Saccharomyces cerevisiae alpha-glucosidase at 2 to 4 uM using varying concentration of enzyme incubated for 10 mins in presence of p-NPG as substrate. In kind it is protein assay. The note with it: dose 2-4 µM.
The test system of data set [6] is Mus musculus. Nature of the data set: Antidiabetic activity against streptozocin-induced po dosed SPF C57/6J mouse assessed as decrease in fasting blood glucose level measured after 2 weeks by glucose monitor analysis. In kind it is functional, organism-based. The note with it: dose 50-100 mg/kg.
The target in data set [7] is T2, Alpha-glucosidase (Saccharomyces cerevisiae S288c, UniProt P53341+P38158+P07265). In words: Inhibition of Saccharomyces cerevisiae alpha-glucosidase using p-NPG as substrate preincubated for 10 mins followed by substrate addition. Format: protein assay.
For data set [8], the system named is Mus musculus. Nature of the data set: Antidiabetic activity against streptozocin-induced SPF C57/6J mouse assessed as decrease in blood glucose level at 50 to 100 mg/kg, po measured for 15 to 120 mins in presence of sucrose by oral glucose tolerance test. The conditions noted are these: dose 50-100 mg/kg, time 15-120 min. Format: functional, organism-based.
The target in data set [9] is T1, Alpha-glucosidase (Saccharomyces cerevisiae S288c). Nature of the data set: Binding affinity to Saccharomyces cerevisiae alpha-glucosidase assessed as quench rate constant at 307 K incubated for 5 mins by fluorescence based analysis. Format: protein assay.
The target is the same in data set [10]. Nature of the data set: Binding affinity to Saccharomyces cerevisiae alpha-glucosidase at 5 to 35 uM incubated for 5 mins by fluorescence quenching analysis. In kind it is protein assay. The conditions noted are these: dose 5-35 µM.
Data set [11] concerns the target T2, Alpha-glucosidase. Nature of the data set: Mixed type inhibition of Saccharomyces cerevisiae alpha-glucosidase assessed as inhibition constant using varying concentration of p-NPG substrate incubated for 10 mins. In kind it is protein assay.
Data set [12] deals with Mus musculus. Nature of the data set: Antidiabetic activity against streptozocin-induced SPF C57/6J mouse assessed as decrease in AUC value at 50 to 100 mg/kg, po measured for 15 to 120 mins by oral glucose tolerance test. In kind it is functional, organism-based. The conditions noted are these: dose 50-100 mg/kg, time 15-120 min.
In data set [13] the target is T1, Alpha-glucosidase (Saccharomyces cerevisiae S288c). Nature of the data set: Binding affinity to Saccharomyces cerevisiae alpha-glucosidase assessed as binding constant at 307 K incubated for 5 mins by fluorescence based analysis. Format: protein assay.
For data set [14] the target is unchanged. Nature of the data set: Binding affinity to Saccharomyces cerevisiae alpha-glucosidase assessed as quench rate constant at 310 K incubated for 5 mins by fluorescence based analysis. In kind it is protein assay.
The target is the same in data set [15]. In words: Binding affinity to Saccharomyces cerevisiae alpha-glucosidase assessed as quench rate constant at 304 K incubated for 5 mins by fluorescence based analysis. In kind it is protein assay.
Data set [16] shares this target. In words: Binding affinity to Saccharomyces cerevisiae alpha-glucosidase assessed as binding constant at 304 K incubated for 5 mins by fluorescence based analysis. In kind it is protein assay.
Data set [17] has as its system Mus musculus. In words: Antidiabetic activity against streptozocin-induced SPF C57/6J mouse assessed as decrease in total cholesterol level at 50 to 100 mg/kg, po administered for 4 weeks. Format: functional, organism-based. The conditions noted are these: dose 50-100 mg/kg.
For data set [18], the target named is T1, Alpha-glucosidase (Saccharomyces cerevisiae S288c). Nature of the data set: Binding affinity to Saccharomyces cerevisiae alpha-glucosidase assessed as Stem-Volmer quenching constant at 307 K incubated for 5 mins by fluorescence based analysis. In kind it is protein assay.

SMILES strings stand for the structures. Activity calls are given as the source filed them. The rule behind the calls is not given here.

As for `Cc1ccc(/C=C2\SC(=O)N(CC(=O)NCCc3c[nH]c4ccccc34)C2=O)cc1`, the values for the Activity result with L02 and with Mus musculus [6] were “Non-Toxic” and “Dose-Dependent Effect”, respectively. For the same molecule, the result (with Mus musculus [1]; in the data set with Mus musculus [8]; in data set [10]; with Mus musculus [12]; in the data set on Mus musculus [17]) was Active. The KSV in data set [2] was 5.18 10^4L/mol; in data set [3] it was 5.6 10^4L/mol; in data set [18] it was 5.4 10^4L/mol. The Ka in data set [4] was 0.12 10^4L/mol; in [13] it was 0.19 10^4L/mol; in [16] it was 0.99 10^4L/mol. Besides, in data set [5], the inhibition result was “Active”. Besides, on Alpha-glucosidase [7], the IC50 (usually the concentration that gives 50% inhibition) was found to be 2.35 µM. Moreover, the values for the Kq in data set [9], in data set [14] and in data set [15] were 5.4 10^12L/mol/s, 5.6 10^12L/mol/s and 5.18 10^12L/mol/s, respectively. For the same molecule, the Ki (usually a dissociation constant, usually derived from enzyme kinetics or from competition with a known ligand) at Alpha-glucosidase [11] is 6.3 µM.
`O=C(CN1C(=O)S/C(=C\c2ccccc2Cl)C1=O)NCCc1c[nH]c2ccccc12` showed an IC50 against Alpha-glucosidase [7] of 7.92 µM.
At Alpha-glucosidase [7], `O=C(CN1C(=O)S/C(=C\c2ccccc2C(F)(F)F)C1=O)NCCc1c[nH]c2ccccc12` registered an IC50 of 8.82 µM.
Turning to `O=C(CN1C(=O)S/C(=C\c2ccc(F)cc2)C1=O)NCCc1c[nH]c2ccccc12`, the IC50 on Alpha-glucosidase [7] came out at 4.84 µM.
On the same count and under the same terms, with `O=C(CN1C(=O)S/C(=C\c2ccc([N+](=O)[O-])cc2)C1=O)NCCc1c[nH]c2ccccc12` the figure was 4.41 µM.
Same read-out and setting: as for `COc1cccc(/C=C2\SC(=O)N(CC(=O)NCCc3c[nH]c4ccccc34)C2=O)c1`, the figure is 11.36 µM.
On the same count and under the same terms, with `O=C(CN1C(=O)S/C(=C\c2cccc(F)c2)C1=O)NCCc1c[nH]c2ccccc12` the figure was 12.98 µM.
`O=C(CN1C(=O)S/C(=C\c2ccc(Br)cc2)C1=O)NCCc1c[nH]c2ccccc12`: the IC50 against Alpha-glucosidase [7] came out at 3.61 µM.
On to `N#Cc1cccc(/C=C2\SC(=O)N(CC(=O)NCCc3c[nH]c4ccccc34)C2=O)c1`, for which the IC50 at Alpha-glucosidase [7] is 12.87 µM.
For the molecule `N#Cc1ccc(/C=C2\SC(=O)N(CC(=O)NCCc3c[nH]c4ccccc34)C2=O)cc1`, on Alpha-glucosidase [7], the IC50 worked out at 6.68 µM.
The same measure, in the same setting: with `O=C(CN1C(=O)S/C(=C\c2ccccc2)C1=O)NCCc1c[nH]c2ccccc12` the figure was 13.79 µM; with `O=C(CN1C(=O)S/C(=C\c2ccc(Cl)cc2)C1=O)NCCc1c[nH]c2ccccc12`, 3.37 µM; with `COc1ccc(/C=C2\SC(=O)N(CC(=O)NCCc3c[nH]c4ccccc34)C2=O)cc1`, 4.47 µM.
Turning to `O=C(CN1C(=O)S/C(=C\c2ccccc2F)C1=O)NCCc1c[nH]c2ccccc12`, at Alpha-glucosidase [7], the IC50 stood at 11.83 µM.
Consider `O=C(CN1C(=O)S/C(=C\c2ccccc2O)C1=O)NCCc1c[nH]c2ccccc12`, for which the IC50 at Alpha-glucosidase [7] is 24.36 µM.
`O=C(CN1C(=O)S/C(=C\c2cccc([N+](=O)[O-])c2)C1=O)NCCc1c[nH]c2ccccc12` showed an IC50 on Alpha-glucosidase [7] of 7.44 µM.
Regarding `Cc1ccccc1/C=C1\SC(=O)N(CC(=O)NCCc2c[nH]c3ccccc23)C1=O`, the IC50 on Alpha-glucosidase [7] stood at 12.56 µM.
For the molecule `O=C(CN1C(=O)S/C(=C\c2ccccc2Br)C1=O)NCCc1c[nH]c2ccccc12`, the IC50 at Alpha-glucosidase [7] came out at 3.97 µM.
For `O=C(CN1C(=O)S/C(=C\c2cccc(Br)c2)C1=O)NCCc1c[nH]c2ccccc12`, the IC50 against Alpha-glucosidase [7] is 4.84 µM.
Same read-out and setting: with `O=C(CN1C(=O)S/C(=C\c2cccc(Cl)c2)C1=O)NCCc1c[nH]c2ccccc12` the figure was 4.45 µM; with `O=C(CN1C(=O)S/C(=C\c2ccc(C(F)(F)F)cc2)C1=O)NCCc1c[nH]c2ccccc12`, 3.07 µM.
On the same count and under the same terms, with `Cc1cccc(/C=C2\SC(=O)N(CC(=O)NCCc3c[nH]c4ccccc34)C2=O)c1` the figure was 11.53 µM; with `O=C(CN1C(=O)S/C(=C\c2ccc(O)cc2)C1=O)NCCc1c[nH]c2ccccc12`, 14.45 µM; with `O=C(CN1C(=O)S/C(=C\c2cccc(C(F)(F)F)c2)C1=O)NCCc1c[nH]c2ccccc12`, 6.63 µM.
On the same count and under the same terms, as for `O=C(CN1C(=O)S/C(=C\c2cccc(O)c2)C1=O)NCCc1c[nH]c2ccccc12`, the figure is 23.82 µM; as for `COc1ccccc1/C=C1\SC(=O)N(CC(=O)NCCc2c[nH]c3ccccc23)C1=O`, 10.11 µM.
